Values quoted from earlier work as cited in patent publication US20110311626A1, “CONTROLLED RELEASE COMPOSITIONS COMPRISING ANTI-CHOLINERGIC DRUGS” (priority 2009, published 2011).

Conditions: currently marketed formulation, blood plasma, after administration

Tmax: 1.5 to 3 h
Compound: CCN(CC)CCOC(=O)C1(C2CCCCC2)CCCCC1 [dicyclomine, bicyclohexyl-1-carboxylic acid, 2-(diethylamino) ethyl ester]
